In patent US11963960B2 (Flash Therapeutics, LLC, priority 2020, dated 2024):

Biological target: N-terminally GST-tagged HCK (75-526) (Homo sapiens (Human), UniProt P08631)
Test: HCK Kinase Assay (ProFluor Src-Family Kinase Assay)
Format: biochemical
Settings: not given
Protocol: The procedure of ProFluor Src-Family Kinase Assay (Promega, Cat. No. V1271) was then followed. To the reaction was added 5 μL Protease solution and the mixture was incubated for 60 minutes at room temperature (22-25° C.), followed by 5 μL Stabilizer solution. The fluorescence signal was read on an Envision multilabel plate reader (Perkin Elmer). The R110 was then read at an excitation wavelength of 485 nm and an emission wavelength of 530 nm. The AMC signal was read at an excitation wavelength of 355 nm and an emission wavelength of 460 nm.

Chain of N-terminally GST-tagged HCK (75-526) (P08631 75-526): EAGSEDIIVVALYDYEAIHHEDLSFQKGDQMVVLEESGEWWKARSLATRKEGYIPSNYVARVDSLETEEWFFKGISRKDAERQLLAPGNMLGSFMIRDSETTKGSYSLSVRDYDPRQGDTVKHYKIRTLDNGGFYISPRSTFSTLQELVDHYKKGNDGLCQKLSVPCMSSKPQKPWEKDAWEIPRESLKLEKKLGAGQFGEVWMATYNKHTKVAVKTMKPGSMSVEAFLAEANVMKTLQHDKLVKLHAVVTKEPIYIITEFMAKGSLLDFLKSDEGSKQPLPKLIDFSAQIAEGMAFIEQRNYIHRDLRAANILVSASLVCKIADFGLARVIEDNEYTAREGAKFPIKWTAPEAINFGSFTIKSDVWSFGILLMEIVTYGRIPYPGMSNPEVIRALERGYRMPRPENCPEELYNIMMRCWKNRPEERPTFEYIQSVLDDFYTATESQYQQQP

IC50 | Compound
< 50 nM | [2H]c1c([2H])c([2H])c(Oc2ccc(-c3cn([C@H]4CC[C@H](N5CCN(C)CC5)CC4)c4ncnc(N)c34)cc2)c([2H])c1[2H] (single isomer, unassigned) [Example 104, 7-((trans)-4-(4-methylpiperazin-1-yl)cyclohexyl)-5-(4-pentadeuteriophenoxyphenyl)-7H-pyrrolo[2,3-d]pyrimidin-4-amine]

Same assay, conditions: HCK inhibitory activity, 50 μM ATP; read-out: HCK Activity

Compound | IC50
Nc1ncnc2c1c(-c1ccc(Oc3ccccc3)cc1)cn2[C@H]1CC[C@H](N2CCN3CCCC3C2)CC1 (stereo partly drawn) [Example 44, 7-((trans)-4-(hexahydropyrrolo[1,2-a]pyrazin-2(1H)-yl)cyclohexyl)-5-(4-phenoxyphenyl)-7H-pyrrolo[2,3-d]pyrimidin-4-amine] | < 50 nM
Nc1ncnc2c1c(-c1ccc(Oc3ccccc3)cc1)cn2[C@H]1CC[C@H](N2CCN3CCC[C@H]3C2)CC1 [Example 46, 7-((trans)-4-((S)-hexahydropyrrolo[1,2-a]pyrazin-2(1H)-yl)cyclohexyl)-5-(4-phenoxyphenyl)-7H-pyrrolo[2,3-d]pyrimidin-4-amine] | < 50 nM
Nc1ncnc2c1c(-c1ccc(Oc3ccccc3)cc1)cn2C1CCC(N2CC3CCC2CN3)CC1 (stereo not drawn) [Example 37, 7-(4-(2,5-diazabicyclo[2.2.2]octan-2-yl)cyclohexyl)-5-(4-phenoxyphenyl)-7H-pyrrolo[2,3-d]pyrimidin-4-amine] | < 50 nM
Nc1ncnc2c1c(-c1ccc(Oc3ccccc3)cc1)cn2C1CCC(O)(Cn2cnnn2)CC1 (stereo not drawn) [Example 102, 1-((1H-Tetrazol-1-yl)methyl)-4-(4-amino-5-(4-phenoxyphenyl)-7H-pyrrolo[2,3-d]pyrimidin-7-yl)cyclohexanol] | < 50 nM
Nc1ncnc2c1c(-c1ccc(Oc3ccccc3)cc1)cn2[C@H]1CC[C@H](N2CC(N)C2)CC1 [Example 77, 7-((trans)-4-(3-aminoazetidin-1-yl)cyclohexyl)-5-(4-phenoxyphenyl)-7H-pyrrolo[2,3-d]pyrimidin-4-amine] | < 50 nM
C[C@@H]1CN([C@H]2CC[C@@H](n3nc(-c4ccc(Oc5ccccc5)cc4F)c4c(N)ncnc43)CC2)CCN1 [Example 18, 3-(2-fluoro-4-phenoxyphenyl)-1-((cis)-4-((R)-3-methylpiperazin-1-yl)cyclohexyl)-1H-pyrazolo[3,4-d]pyrimidin-4-amine] | 250 to 10000 nM
Nc1ncnc2c1c(-c1ccc(Oc3ccccc3)cc1)cn2[C@H]1CC[C@@H](N2CCN3CCC[C@H]3C2)CC1 [Example 47, 7-((cis)-4-((S)-hexahydropyrrolo[1,2-a]pyrazin-2(1H)-yl)cyclohexyl)-5-(4-phenoxyphenyl)-7H-pyrrolo[2,3-d]pyrimidin-4-amine] | 50 to 250 nM
Nc1ncnc2c1c(-c1ccc(Oc3ccccc3)cc1)cn2[C@H]1CC[C@H](N2CCSCC2)CC1 [Example 63, 5-(4-phenoxyphenyl)-7-((trans)-4-thiomorpholinocyclohexyl)-7H-pyrrolo[2,3-d]pyrimidin-4-amine] | 250 to 10000 nM
Nc1ncnc2c1c(-c1ccc(Oc3ccccc3)cc1)cn2[C@H]1CC[C@H](N2CCC(S(N)(=O)=O)CC2)CC1 [Example 69, 1-((trans)-4-(4-amino-5-(4-phenoxyphenyl)-7H-pyrrolo[2,3-d]pyrimidin-7-yl)cyclohexyl)piperidine-4-sulfonamide] | 50 to 250 nM
CN1CCN(C2CCC(n3nc(-c4ccc(Oc5ccccc5)cc4F)c4c(N)ncnc43)C2)CC1 (stereo not drawn) [Example 135] | 50 to 250 nM
CN1CCN([C@H]2CC[C@H](n3cc(-c4ccc(Oc5ccccc5)cc4)c4c(O)ncnc43)CC2)CC1 [Example 87, 7-((trans)-4-(4-Methylpiperazin-1-yl)cyclohexyl)-5-(4-phenoxyphenyl)-7H-pyrrolo[2,3-d]pyrimidin-4-ol] | < 50 nM
Nc1ncnc2c1c(-c1ccc(Oc3ccccc3)cc1F)nn2[C@H]1CC[C@H](N2CCN(CCO)CC2)CC1 [Example 10, 2-(4-((trans)-4-(4-amino-3-(2-fluoro-4-phenoxyphenyl)-1H-pyrazolo[3,4-d]pyrimidin-1-yl)cyclohexyl)piperazin-1-yl)ethanol] | < 50 nM
CCN1CCN([C@H]2CC[C@H](n3nc(-c4ccc(Oc5ccccc5)cc4F)c4c(N)ncnc43)CC2)CC1 [Example 9, 1-((trans)-4-(4-ethylpiperazin-1-yl)cyclohexyl)-3-(2-fluoro-4-phenoxyphenyl)-1H-pyrazolo[3,4-d]pyrimidin-4-amine] | < 50 nM
CN1CCN([C@H]2CC[C@H](n3nc(-c4c(F)cc(Oc5ccccc5)cc4F)c4c(N)ncnc43)CC2)CC1 [Example 107, 3-(2,6-difluoro-4-phenoxyphenyl)-1-((trans)-4-(4-methylpiperazin-1-yl)cyclohexyl)-1H-pyrazolo[3,4-d]pyrimidin-4-amine] | < 50 nM
CC1(N)CCN([C@H]2CC[C@H](n3cc(-c4ccc(Oc5ccccc5)cc4)c4c(N)ncnc43)CC2)CC1 [Example 50, 7-((trans)-4-(4-amino-4-methylpiperidin-1-yl)cyclohexyl)-5-(4-phenoxyphenyl)-7H-pyrrolo[2,3-d]pyrimidin-4-amine] | 50 to 250 nM
Nc1ncnc2c1c(-c1ccc(Oc3ccccc3)cc1)cn2[C@H]1CC[C@@H](NC2CNC2)CC1 [Example 84, 7-((cis)-4-(azetidin-3-ylamino)cyclohexyl)-5-(4-phenoxyphenyl)-7H-pyrrolo[2,3-d]pyrimidin-4-amine] | 50 to 250 nM
Nc1ncnc2c1c(-c1ccc(Oc3ccccc3)cc1)cn2[C@H]1CC[C@H](N2CCN3CCC[C@@H]3C2)CC1 [Example 48, 7-((trans)-4-((R)-hexahydropyrrolo[1,2-a]pyrazin-2(1H)-yl)cyclohexyl)-5-(4-phenoxyphenyl)-7H-pyrrolo[2,3-d]pyrimidin-4-amine] | < 50 nM
Nc1ncn([C@H]2CC[C@@H](n3cc(-c4ccc(Oc5ccccc5)cc4)c4c(N)ncnc43)CC2)n1 [Example 82, 7-((cis)-4-(3-amino-1H-1,2,4-triazol-1-yl)cyclohexyl)-5-(4-phenoxyphenyl)-7H-pyrrolo[2,3-d]pyrimidin-4-amine] | < 50 nM
CC1CN([C@H]2CC[C@H](n3cc(-c4ccc(Oc5ccccc5)cc4)c4c(N)ncnc43)CC2)CCN1C (stereo partly drawn) [Example 22, 7-((trans)-4-(3,4-dimethylpiperazin-1-yl)cyclohexyl)-5-(4-phenoxyphenyl)-7H-pyrrolo[2,3-d]pyrimidin-4-amine] | < 50 nM

Continued, values first:

IC50 | Compound
50 to 250 nM | C[C@H]1CN([C@H]2CC[C@@H](c3cc(-c4ccc(Oc5ccccc5)cc4)c4c(N)ncnn43)CC2)CCN1 [Example 170, 7-((cis)-4-((S)-3-Methylpiperazin-1-yl)cyclohexyl)-5-(4-phenoxyphenyl)pyrrolo[2,1-f][1,2,4]triazin-4-amine]
< 50 nM | Nc1ncnc2c1c(-c1ccc(Oc3ccccc3)cc1)nn2[C@H]1CC[C@H](n2cc(CO)cn2)CC1 [Example 138, (1-((trans)-4-(4-Amino-3-(4-phenoxyphenyl)-1H-pyrazolo[3,4-d]pyrimidin-1-yl)cyclohexyl)-1H-pyrazol-4-yl)methanol]
250 to 10000 nM | CN1CCN([C@H]2CC[C@@H](c3cn(-c4ccc(Oc5ccccc5)cc4)c4c(N)ncnc43)CC2)CC1 [Example 176, 7-((cis)-4-(4-methylpiperazin-1-yl)cyclohexyl)-5-(4-phenoxyphenyl)-5H-pyrrolo[3,2-d]pyrimidin-4-amine]
50 to 250 nM | Nc1ncnc2c1c(-c1ccc(NC(=O)CCc3ccccc3)cc1)cn2C1CCC(C2OCC(N)CO2)CC1 (stereo not drawn) [Example 139, N-(4-(4-Amino-7-(4-(5-amino-1,3-dioxan-2-yl)cyclohexyl)-7H-pyrrolo[2,3-d]pyrimidin-5-yl)phenyl)-3-phenylpropanamide]
< 50 nM | C[C@H]1CC(N2CCC(n3cc(-c4ccc(NC(=O)Nc5cc(C(C)(C)C)on5)cc4)c4c(N)ncnc43)CC2)CCN1 (stereo partly drawn) [Example 156, 1-(4-(4-amino-7-((2′S)-2′-methyl-[1,4′-bipiperidin]-4-yl)-7H-pyrrolo[2,3-d]pyrimidin-5-yl)phenyl)-3-(5-(tert-butyl)isoxazol-3-yl)urea]
50 to 250 nM | CN1CCN([C@H]2CC[C@H](n3cc(-c4ccc(CC(=O)Nc5cc(C(C)(C)C)on5)cc4)c4c(N)ncnc43)CC2)CC1 [Example 124, 2-(4-(4-amino-7-((trans)-4-(4-methylpiperazin-1-yl)cyclohexyl)-7H-pyrrolo[2,3-d]pyrimidin-5-yl)phenyl)-N-(5-(tert-butyl)isoxazol-3-yl)acetamide]
< 50 nM | CN1CCN([C@H]2CC[C@H](n3cc(-c4ccc(C(O)c5ccccc5)cc4)c4c(N)ncnc43)CC2)CC1 (stereo partly drawn) [Example 114, (4-(4-amino-7-((trans)-4-(4-methylpiperazin-1-yl)cyclohexyl)-7H-pyrrolo[2,3-d]pyrimidin-5-yl)phenyl)(phenyl)methanol]
< 50 nM | [2H]c1c([2H])c([2H])c(Oc2ccc(-c3cn([C@H]4CC[C@H](N5CCN[C@@H](C)C5)CC4)c4ncnc(N)c34)cc2)c([2H])c1[2H] [Example 125, 7-((trans)-4-((S)-3-methylpiperazin-1-yl)cyclohexyl)-5-(4-pentadeuteriophenoxyphenyl)-7H-pyrrolo[2,3-d]pyrimidin-4-amine]
< 50 nM | C[C@H]1CN([C@H]2CC[C@H](c3cc(-c4ccc(Oc5ccccc5)cc4)c4c(N)ncnn43)CC2)CCN1 [Example 169, 7-((trans)-4-((S)-3-Methylpiperazin-1-yl)cyclohexyl)-5-(4-phenoxyphenyl)pyrrolo[2,1-f][1,2,4]triazin-4-amine]
< 50 nM | CN1CCN([C@H]2CC[C@H](n3cc(-c4ccc(C(=O)c5ccccc5)cc4)c4c(N)ncnc43)CC2)CC1 [Example 113, (4-(4-amino-7-((trans)-4-(4-methylpiperazin-1-yl)cyclohexyl)-7H-pyrrolo[2,3-d]pyrimidin-5-yl)phenyl)(phenyl)methanone]
